Measured values: patent US20110034373A1, “USE OF AN FGF-21 COMPOUND AND A GLP-1 COMPOUND FOR THE TREATMENT OF OBESITY” (ELI LILLY AND COMPANY, priority 2007, published 2011)

B1: FGF-21: FGF-21 compound of Table 1: human FGF-21, printed as 'human FGF-2 (SEQ ID NO: 1)' (protein, listed as Homo sapiens)
chain: MDSDETGFEHSGLWVSVLAGLLGACQAHPIPDSSPLLQFGGQVRQRYLYTDDAQQTEAHLEIREDGTVGGAADQSPESLLQLKALKPGVIQILGVKTSRFLCQRPDGALYGSLHFDPEACSFRELLLEDGYNVYQSEAHGLPLHLPGNKSPHRDPAPRGPARFLPLPGLPPALPEPPGILAPQPPDVGSSDPLSMVGPSQGRSPSYAS

Test system: Diet-induced obese (DIO) male C57/B16 mice
Assay: Effect of combination treatment with GLP-1 and FGF-21 on body weight in diet-induced obese mice
Type: in vivo
Details: GLP-1 compound 3 nmol/kg/day continuous s.c. infusion (alzet pump), n=8
Protocol: Diet-induced obese (DIO) male C57/B16 mice (Harlan: Va.) maintained on a calorie rich diet (TD95217, Teklad, Madison, Wis.) since weaning are used, DIO is established by ad libitum feeding for at least 7 weeks of a diet consisting of 40% fat, 39% carbohydrate, and 21% protein caloric content (TD95217). Animals are individually housed in a temperature-controlled (24° C.) facility with 12 hour light/dark cycle (lights on 2200) and free access to food (TD95217) and water. After a minimum of 2 weeks acclimation to the facility, the mice are randomized according to their body weight, so each experimental group of animals would have similar body weight.
Body composition of DIO male C57/B16 mice is determined by using QNMR analysis 1 day prior to initiation of treatment. Combination treatment is administered with two delivery methods. A FGF-21 compound (1 mg/kg) is subcutaneously injected once a day and a GLP-1 compound (3 nmol/kg/day) is delivered by continuous subcutaneous infusion with alzet pump. The experimental groups are as follow: One group (“Vehicle”) of mice (n=8) receives PBS (11.4 μL/day) and a daily subcutaneous injection of 0.05 mL/10 g of PBS. Another group (“FGF-21”) of mice (n=8) receives 11.4 μL/day of PBS using the alzet pump and a daily subcutaneous injection of 1 mg/kg of FGF-21. The “GLP-1” group of mice receives 3 nmol/kg/day of a GLP-1 compound through an alzet pump and a daily subcutaneous injection of 0.05 mL/10 g of PBS. The “GLP-1+FGF-21” group of mice receives 3 nmol/kg/day of a GLP-1 compound through an alzet pump and a daily subcutaneous injection of 1 mg/kg of a FGF-21 compound. Injections occur prior to the onset of the dark photoperiod. Starting weight values are measured after implantation of alzet pumps on Day 1. Body weights are recorded in conjunction with daily dosing. Average weight changes compared to starting weights of a particular treatment group, including vehicle, are determined. Average daily weight changes are normalized to average of daily weight change of Vehicle group and are reported in Table 1 (i.e., (Average weight change of Treatment group)−(Average weight change of Vehicle group)). For all treatment groups n=8.
Data in Table 1 represent results where the FGF-21 compound is human FGF-2 (SEQ ID NO: 1) and where the GLP-1 compound is Val^8-Glu^22-Ile^33-Pro^37-Ser^38-Ser^39-Gly^40-Ala^41-Pro^42-Pro^43-Pro^44-Ser^45-GLP-1 (SEQ ID NO: 19).

[1] = Day 1 (starting weight), FGF-21 compound 1 mg/kg s.c. once a day
[2] = Day 5, FGF-21 compound 1 mg/kg s.c. once a day
[3] = Day 10, FGF-21 compound 1 mg/kg s.c. once a day
[4] = Day 15, FGF-21 compound 1 mg/kg s.c. once a day

Molecule	Average Weight Change Normalized to Vehicle Treated Mice [1] [g]	Average Weight Change Normalized to Vehicle Treated Mice [2] [g]	Average Weight Change Normalized to Vehicle Treated Mice [3] [g]	Average Weight Change Normalized to Vehicle Treated Mice [4] [g]
Val^8-Glu^22-Ile^33-Pro^37-Ser^38-Ser^39-Gly^40-Ala^41-Pro^42-Pro^43-Pro^44-Ser^45-GLP-1 (HVEGTFTSDVSSYLEEQAAKEFIAWLIKGGPSSGAPPPS)	0	-1.01	-1.99	-2.50
B1	0	-0.45	-1.94	-2.85
